Where “and” joins values, the source holds several entries; their conditions need not be identical. Equal values may be shown once. Inconclusive results and toxic doses are left out. Rule for the calls: active = survival T/C of 150% or more; inactive = T/C below 125% in these data.
System: CD2F1 mice, L1210 leukemia ip, survival T/C
Assay: NCI In Vivo Anticancer Drug Screen. Data for tumor model L1210 Leukemia (intraperitoneal) in CD2F1 (CDF1) mice
Conditions: higher = longer survival
Summary of the method: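 Mice carrying a transplanted tumor received test compound or vehicle alone. The value is the measurement in the treated group divided by that in the vehicle-treated control group.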

[1] = endpoint: mean survival time, dose: 100.0 mg/kg/injection, schedule: Q01DX001 (ip), vehicle: saline with Tween-80
[2] = endpoint: mean survival time, dose: 200.0 mg/kg/injection, schedule: Q01DX001 (ip), vehicle: saline with Tween-80
[3] = endpoint: mean survival time, dose: 400.0 mg/kg/injection, schedule: Q01DX001 (ip), vehicle: saline with Tween-80
[4] = endpoint: mean survival time, dose: 100.0 mg/kg/injection, schedule: Q04DX003 (ip), vehicle: saline with Tween-80
[5] = endpoint: mean survival time, dose: 200.0 mg/kg/injection, schedule: Q04DX003 (ip), vehicle: saline with Tween-80
[6] = endpoint: mean survival time, dose: 400.0 mg/kg/injection, schedule: Q04DX003 (ip), vehicle: saline with Tween-80
[7] = endpoint: mean survival time, dose: 100.0 mg/kg/injection, schedule: Q04DX002 (ip), vehicle: saline with Tween-80
[8] = endpoint: mean survival time, dose: 200.0 mg/kg/injection, schedule: Q04DX002 (ip), vehicle: saline with Tween-80
[9] = endpoint: mean survival time, dose: 25.0 mg/kg/injection, schedule: Q04DX003 (ip), vehicle: saline with Tween-80
[10] = endpoint: mean survival time, dose: 50.0 mg/kg/injection, schedule: Q04DX003 (ip), vehicle: saline with Tween-80
[11] = endpoint: mean survival time, dose: 100.0 mg/kg/injection, schedule: Q01DX009 (ip), vehicle: saline with Tween-80
[12] = endpoint: mean survival time, dose: 400.0 mg/kg/injection, schedule: Q01DX009 (ip), vehicle: saline with Tween-80

Measured: T/C

CCCCCCC(C)OC(=O)CCCc1ccc(N(CCCl)CCCl)cc1 (centres undefined)
inactive: endpoint: mean survival time, dose: 50.0 mg/kg/injection, schedule: Q01DX009 (ip), vehicle: acetone 104 % of control | endpoint: mean survival time, dose: 100.0 mg/kg/injection, schedule: Q01DX009 (ip), vehicle: acetone 104 % of control | endpoint: mean survival time, dose: 200.0 mg/kg/injection, schedule: Q01DX009 (ip), vehicle: acetone 104 % of control

CC(C)OC(=O)Nc1cccc(Cl)c1F
inactive: [1] 96 % of control | [2] 95 % of control | [3] 96 % of control

Cc1ccc(Nc2n[nH]c(=S)s2)cc1C
inactive: [4] 93 % of control | [5] 94 % of control | [6] 109 % of control

Cc1ccccc1NC(=O)Oc1c(Cl)cc(Cl)c2ccccc12
inactive: [7] 89 % of control | [8] 93 % of control | endpoint: mean survival time, dose: 400.0 mg/kg/injection, schedule: Q04DX002 (ip), vehicle: saline with Tween-80 101 % of control

CC1CCC(C(C)C)/C(=N/NC(=O)CC#N)C1 (centres undefined)
inactive: endpoint: mean survival time, dose: 100.0 mg/kg/injection, schedule: Q01DX001 (ip), vehicle: saline 98 % of control | endpoint: mean survival time, dose: 200.0 mg/kg/injection, schedule: Q01DX001 (ip), vehicle: saline 95 % of control

CCCCCCCCCCCCCCCCCC[Se][Se]CCCCCCCCCCCCCCCCCC
inactive: [9] 93 % of control | [10] 95 % of control | [4] 95 % of control

CCCCCCCCCCCCSC1=C(Cl)C(=O)C(OC)=C(OC)C1=O
inactive: endpoint: mean survival time, dose: 6.25 mg/kg/injection, schedule: Q01DX009 (ip), vehicle: saline with Tween-80 91 % of control | endpoint: mean survival time, dose: 12.5 mg/kg/injection, schedule: Q01DX009 (ip), vehicle: saline with Tween-80 94 % of control | endpoint: mean survival time, dose: 25.0 mg/kg/injection, schedule: Q01DX009 (ip), vehicle: saline with Tween-80 95 % of control | endpoint: mean survival time, dose: 50.0 mg/kg/injection, schedule: Q01DX009 (ip), vehicle: saline with Tween-80 93 % of control

CC1=NN(c2cccc(S(=O)(=O)O)c2)C(=O)C1N=Nc1cc(Cl)cc(S(=O)(=O)O)c1O.CC1=NN(c2cccc(S(=O)(=O)O)c2)C(=O)C1N=Nc1cc(Cl)cc(S(=O)(=O)O)c1O.[Cr] (centres undefined)
inactive: endpoint: median survival time, dose: 25.0 mg/kg/injection, schedule: Q01DX009 (ip), vehicle: saline 113 % of control | endpoint: median survival time, dose: 50.0 mg/kg/injection, schedule: Q01DX009 (ip), vehicle: saline 107 % of control | endpoint: median survival time, dose: 100.0 mg/kg/injection, schedule: Q01DX009 (ip), vehicle: saline 101 % of control | endpoint: median survival time, dose: 200.0 mg/kg/injection, schedule: Q01DX009 (ip), vehicle: saline 118 % of control | endpoint: median survival time, dose: 400.0 mg/kg/injection, schedule: Q01DX009 (ip), vehicle: saline 120 % of control

O=[N+]([O-])c1ccccc1NC(Nc1ccccc1[N+](=O)[O-])C(Cl)(Cl)Cl
inactive: [11] 98 % of control | endpoint: mean survival time, dose: 200.0 mg/kg/injection, schedule: Q01DX009 (ip), vehicle: saline with Tween-80 101 % of control | [12] 101 % of control

Cc1cc(C)c(C(=O)CC(C#N)c2ccccc2)c(C)c1 (centres undefined)
inactive: [4] 95 % of control | [5] 98 % of control | [6] 91 % of control

NC(=O)OCC(O)C(O)C(N)C(=O)NC(C(=O)O)C1OC(n2ccc(=O)[nH]c2=O)C(O)C1O (centres undefined)
inactive: endpoint: mean survival time, dose: 12.5 mg/kg/injection, schedule: Q01DX005 (ip), vehicle: water 96 % of control | endpoint: mean survival time, dose: 25.0 mg/kg/injection, schedule: Q01DX005 (ip), vehicle: water 103 % of control | endpoint: mean survival time, dose: 50.0 mg/kg/injection, schedule: Q01DX005 (ip), vehicle: water 98 % of control | endpoint: mean survival time, dose: 100.0 mg/kg/injection, schedule: Q01DX005 (ip), vehicle: water 101 % of control | endpoint: mean survival time, dose: 200.0 mg/kg/injection, schedule: Q01DX005 (ip), vehicle: water 94 % of control

O=C1C(=O)c2ccccc2-c2ccccc21.O=C1C(=O)c2ccccc2-c2ccccc21.[Hg]
inactive: endpoint: mean survival time, dose: 1.56 mg/kg/injection, schedule: Q04DX002 (ip), vehicle: saline with Tween-80 87 % of control | endpoint: mean survival time, dose: 3.13 mg/kg/injection, schedule: Q04DX002 (ip), vehicle: saline with Tween-80 98 % of control | endpoint: mean survival time, dose: 6.25 mg/kg/injection, schedule: Q04DX002 (ip), vehicle: saline with Tween-80 113 % of control

[NH-]c1ncnc2c1ncn2C1OC(CO)C(O)C1O.[NH-]c1ncnc2c1ncn2C1OC(CO)C(O)C1O.[Pt+2] (centres undefined)
inactive: endpoint: mean survival time, dose: 12.5 mg/kg/injection, schedule: Q04DX003 (ip), vehicle: saline with Tween-80 92 % of control | [9] 95 % of control | [10] 92 % of control | [4] 89 % of control | [5] 86 % of control

CCN(CC)CCOC(=O)Cc1cccc2c(=O)cc(-c3ccccc3)oc12
inactive: endpoint: mean survival time, dose: 12.5 mg/kg/injection, schedule: Q01DX009 (ip), vehicle: Klucel (hydroxypropylcellulose) (HPC) 95 % of control | endpoint: mean survival time, dose: 25.0 mg/kg/injection, schedule: Q01DX009 (ip), vehicle: Klucel (hydroxypropylcellulose) (HPC) 95 % of control | endpoint: mean survival time, dose: 25.0 mg/kg/injection, schedule: Q01DX009 (ip), vehicle: saline 95 % of control | endpoint: mean survival time, dose: 50.0 mg/kg/injection, schedule: Q01DX009 (ip), vehicle: Klucel (hydroxypropylcellulose) (HPC) 92 % of control | endpoint: mean survival time, dose: 50.0 mg/kg/injection, schedule: Q01DX009 (ip), vehicle: saline 111 % of control | endpoint: mean survival time, dose: 100.0 mg/kg/injection, schedule: Q01DX009 (ip), vehicle: Klucel (hydroxypropylcellulose) (HPC) 89 % of control | endpoint: mean survival time, dose: 100.0 mg/kg/injection, schedule: Q01DX009 (ip), vehicle: saline 96 % of control | endpoint: mean survival time, dose: 200.0 mg/kg/injection, schedule: Q01DX009 (ip), vehicle: Klucel (hydroxypropylcellulose) (HPC) 87 % of control | endpoint: mean survival time, dose: 200.0 mg/kg/injection, schedule: Q01DX009 (ip), vehicle: saline 111 % of control | endpoint: mean survival time, dose: 400.0 mg/kg/injection, schedule: Q01DX009 (ip), vehicle: Klucel (hydroxypropylcellulose) (HPC) 93 % of control

Nc1cc2c(nnn2C2OC(CO)C(O)C2O)c(=O)[nH]1 (centres undefined)
inactive: endpoint: mean survival time, dose: 12.5 mg/kg/injection, schedule: Q01DX005 (ip), vehicle: distilled water + Tween-80 98 % of control | endpoint: mean survival time, dose: 25.0 mg/kg/injection, schedule: Q01DX005 (ip), vehicle: distilled water + Tween-80 98 % of control | endpoint: mean survival time, dose: 50.0 mg/kg/injection, schedule: Q01DX005 (ip), vehicle: distilled water + Tween-80 102 % of control | endpoint: mean survival time, dose: 100.0 mg/kg/injection, schedule: Q01DX005 (ip), vehicle: distilled water + Tween-80 98 % of control | endpoint: mean survival time, dose: 200.0 mg/kg/injection, schedule: Q01DX005 (ip), vehicle: distilled water + Tween-80 88 % of control

[NH-]NC(=S)[S-].[NH-]NC(=S)[S-].[Ni]
inactive: [4] 98 % of control | [5] 102 % of control | [6] 107 % of control

COC(=O)C(C)NC(=O)OCc1ccccc1 (centres undefined)
inactive: [4] 96 % of control | [5] 98 % of control | [6] 101 % of control

C=CN
inactive: endpoint: mean survival time, dose: 25.0 mg/kg/injection, schedule: Q04DX002 (ip), vehicle: saline with Tween-80 95 % of control | endpoint: mean survival time, dose: 50.0 mg/kg/injection, schedule: Q04DX002 (ip), vehicle: saline with Tween-80 106 % of control | [7] 98 % of control | [8] 98 % of control

CC(NC(=O)CNC(=O)CNC(=O)OCc1ccccc1)C(=O)OCc1ccccc1 (centres undefined)
inactive: [4] 97 % of control | [5] 99 % of control | [6] 101 % of control

O=C1c2ccccc2C(=O)N1CNc1ccc(Cl)cn1
inactive: [11] 86 % of control | [4] 97 % of control and 100 % of control | [5] 90 % of control and 98 % of control | [12] 86 % of control | [6] 91 % of control and 102 % of control

O=C(COc1ccc(Cl)cc1C(=O)O)NCc1ccc(NC(=O)Nc2ccc(S(=O)(=O)F)cc2)cc1
inactive: [1] 96 % of control | [2] 91 % of control | [3] 91 % of control

CCCCn1c(Cc2ccccc2)nc2c1C(=O)c1ccccc1C2=O
inactive: endpoint: mean survival time, dose: 100.0 mg/kg/injection, schedule: Q04DX003 (ip), vehicle: saline 103 % of control | endpoint: mean survival time, dose: 200.0 mg/kg/injection, schedule: Q04DX003 (ip), vehicle: saline 101 % of control | endpoint: mean survival time, dose: 400.0 mg/kg/injection, schedule: Q04DX003 (ip), vehicle: saline 98 % of control

— PubChem BioAssay AID256 (DTP/NCI, 2004)
